Test results published in paper PMC6272905, “In Vitro and In Vivo Characterization of Selected Fluorine-18 Labeled Radioligands for PET Imaging of the Dopamine D3 Receptor” (Molecules, 2016).
pKi: −log10 of the molar value.

Key:
[1] = Free fraction in rat plasma; type: in vitro ADME; settings: rat plasma, Figure 3b
Description: The free fraction in vitro was determined by adding the respective radioligand (100 kBq) to plasma or CSF (200 µL) and mixed vigorously. Aliquots of 20–50 µL were transferred to size exclusion chromatography columns (MicroSpin G-50; GE Healthcare GmbH, Solingen, Germany, centrifuged for two min at 2000 rpm, and the radioactivity in the filtrate and in the resin were measured in the gamma-counter. Three independent experiments were performed in triplicates.
For the ex vivo determination of the radioligands binding to proteins the respective tracer (15 MBq) was administered intravenous to male Sprague Dawley rats (200–250 g) under isoflurane anesthesia. Blood samples were drawn intravenous after 5, 15 and 30 min and centrifuged for 5 min at 2000 rpm in heparin-coated vials. An aliquot of 50 µL was taken from the supernatant and added to an equal volume of water (10% TFA). The protein precipitate was centrifuged off for 5 min at 25,000 rpm and analyzed together with a further 50 µL aliquot of the supernatant in the gamma-counter. Two independent experiments were performed.

[2] = molecular target: T1, D3 receptor (Rattus norvegicus, UniProt P19020); experiment: In vitro autoradiography of coronal rat brain sections; type: binding; settings: displacement with BP897
T1 construct: In vitro autoradiography of coronal rat brain sections after incubation with the respective radioligand; from tissue; host or cells: coronal brain cryosections (20 µm) of male Sprague Dawley rats
T1 sequence (P19020 whole entry): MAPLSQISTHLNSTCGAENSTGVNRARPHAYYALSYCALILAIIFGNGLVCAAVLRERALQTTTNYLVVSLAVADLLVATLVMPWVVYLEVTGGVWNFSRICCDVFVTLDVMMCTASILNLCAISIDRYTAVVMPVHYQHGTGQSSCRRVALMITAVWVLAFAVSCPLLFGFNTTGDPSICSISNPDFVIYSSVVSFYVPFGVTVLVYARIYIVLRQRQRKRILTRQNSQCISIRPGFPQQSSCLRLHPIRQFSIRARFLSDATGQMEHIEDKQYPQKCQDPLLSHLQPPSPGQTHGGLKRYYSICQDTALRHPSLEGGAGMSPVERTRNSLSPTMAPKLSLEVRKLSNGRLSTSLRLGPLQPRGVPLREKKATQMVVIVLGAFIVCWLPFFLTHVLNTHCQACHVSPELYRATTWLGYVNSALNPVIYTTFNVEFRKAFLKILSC
Description: Male Sprague Dawley rats (200–250 g) were sacrificed by decapitation under deep isoflurane anesthesia and brains were removed and frozen in cooled hexane at −70 °C. Coronal brain sections (20 µm) were cut on a cryostat microtome (HM550, Microm-Thermo Fisher Scientific, Walldorf, Germany) and thaw-mounted on covered glass slides (Histobond®, Marienfeld, Lauda Königshofen, Germany). The thaw mounted sections were stored at −20 °C up to 14 days.
The cryostat sections were pre-incubated for 15 min in incubation buffer (50 mM Tris-HCl, 40 mM NaCl, pH 7.4) at room temperature. The sections were then placed in incubation buffer containing 5 MBq of the respective tracer. For displacement studies BP897 (50 nM or 1 µM) was added. The sections were incubated at room temperature for 45 min and afterwards washed in ice cold incubation buffer for 3 × 5 min. Subsequently, they were dipped in water and after drying placed on a phosphor imaging screen (Fujitsu, Berlin, Germany) over night. The screens were analyzed with a DUERR Medical HD-CR 35 Bio (Raytest, Straubenhardt, Germany) and evaluated using the software AIDA image analyzer (Raytest). For anatomical identification of brain regions, the sections were compared with figures in the rat brain atlas.

[3] = tested on: dopamine D3 receptor; experiment: Dynamic small-animal PET recordings; type: in vivo; settings: rat
Description: Small-animal PET imaging studies were conducted with male Sprague Dawleys rats (250–300 g) on a Inveon microPET scanner (Siemens Healthcare, Erlangen, Germany) under isoflurane (3%) anesthesia. After intravenous injection of [^18F]2b (10–15 MBq), dynamic emission recordings consisting of 13 frames of duration increasing from 30 s to 10 min were acquired to a total of 60 min. For displacement studies BP897 (1 mg/kg) was administered 30 min prior to radioligand injection. Dynamic emission images were corrected for attenuation and decay, and reconstructed by the iterative maximum a posteriori estimation, using software installed in the Inveon PET for dead time and random correction. The dynamic PET scan was then evaluated using the software Amide. The regions of interest were evaluated voxel based and the mean activity in %ID/g of each frame calculated.

[4] = molecular target: T2, P-gp (Homo sapiens, UniProt P08183); experiment: P-gp inhibition assay (cellular uptake) in EA.hy926 cells; type: cell-based
T2 construct: endogenous in cells; host or cells: Caco-2
T2 sequence (P08183 whole entry): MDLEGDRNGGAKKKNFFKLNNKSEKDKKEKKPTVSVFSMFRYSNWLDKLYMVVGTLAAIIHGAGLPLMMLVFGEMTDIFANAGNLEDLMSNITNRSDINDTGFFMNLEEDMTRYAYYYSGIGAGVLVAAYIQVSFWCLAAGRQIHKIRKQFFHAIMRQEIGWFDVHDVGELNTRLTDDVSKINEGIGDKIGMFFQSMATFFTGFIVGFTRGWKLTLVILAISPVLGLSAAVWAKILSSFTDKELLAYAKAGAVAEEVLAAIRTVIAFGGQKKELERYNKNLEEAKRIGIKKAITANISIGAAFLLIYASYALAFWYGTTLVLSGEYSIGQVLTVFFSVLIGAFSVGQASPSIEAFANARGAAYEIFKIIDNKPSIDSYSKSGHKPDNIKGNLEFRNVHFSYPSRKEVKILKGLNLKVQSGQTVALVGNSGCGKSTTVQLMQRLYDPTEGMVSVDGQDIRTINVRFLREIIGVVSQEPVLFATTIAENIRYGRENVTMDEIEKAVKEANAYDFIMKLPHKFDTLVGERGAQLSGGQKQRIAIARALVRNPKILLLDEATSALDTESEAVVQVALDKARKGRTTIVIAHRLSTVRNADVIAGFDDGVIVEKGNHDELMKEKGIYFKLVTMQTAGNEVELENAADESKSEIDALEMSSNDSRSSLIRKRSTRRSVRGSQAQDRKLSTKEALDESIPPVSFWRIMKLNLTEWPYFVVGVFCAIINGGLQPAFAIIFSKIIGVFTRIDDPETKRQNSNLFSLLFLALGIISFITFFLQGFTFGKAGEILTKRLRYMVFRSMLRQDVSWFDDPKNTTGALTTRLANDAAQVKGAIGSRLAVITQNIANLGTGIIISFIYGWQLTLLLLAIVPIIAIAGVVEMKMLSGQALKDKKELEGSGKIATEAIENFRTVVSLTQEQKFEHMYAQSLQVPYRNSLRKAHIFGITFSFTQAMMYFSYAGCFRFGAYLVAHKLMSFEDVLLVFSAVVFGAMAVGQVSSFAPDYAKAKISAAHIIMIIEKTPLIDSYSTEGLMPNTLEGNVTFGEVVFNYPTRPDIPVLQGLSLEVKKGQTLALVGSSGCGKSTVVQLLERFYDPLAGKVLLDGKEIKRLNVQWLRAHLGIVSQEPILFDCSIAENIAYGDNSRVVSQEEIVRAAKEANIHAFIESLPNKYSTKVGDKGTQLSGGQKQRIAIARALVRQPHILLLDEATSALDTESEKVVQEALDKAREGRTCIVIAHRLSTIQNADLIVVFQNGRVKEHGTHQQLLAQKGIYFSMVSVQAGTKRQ
Description: EA.hy926 cells were seeded in culture medium at confluency the day prior to experiment or in case of the Caco-2 cells two days prior to experiment in 24-multiwell plates (Greiner Bio-One International GmbH, Kremsmünster, Austria). On the day of the experiment the culture medium was removed and the cells were washed once with PBS (500 µL). Culture medium supplemented with cyclosporine-A (5 µM for EA.hy926 and 10 µM for Caco-2) was added and the cells were incubated at 37 °C for 30 min. Afterwards 1 MBq of [^18F]2b was added to each well and incubated for further 30, 60 and 90 min. After incubation cells were washed with ice cold PBS (500 µL) and lysated with 0.1 M NaOH. The medium and lysates were analysed in the gamma-counter. To identify cyclosporine-A induced accumulation the experiment was also performed using culture medium lacking cyclosporine-A. As positive control the experiment was performed with ^99mTc-MIBI (100 kBq/well), a known P-gp substrate. To determine the lowermost concentration with which a maximum effect was obtained, cyclosporine-A was applied in a range of 0–50 µM and observed in a time frame of 30–120 min for both cell lines.

[5] = molecular target: T2, P-gp; experiment: Bi-directional transport assay in Caco-2 cells; type: cell-based
Description: The procedure of initially adding equal concentrations to both compartments was adapted from the literature. Caco-2 cells were seeded near confluency in thin-cert inserts (translucent, Ø 0.4 µm, 24 well PET membrane, Greiner) and placed in multiwell plates (CELLSTAR 24 Multiwell plates, Greiner). The culture medium basolateral (multiwell) and apical (insert) was renewed every 2–3 days. Approximately 12 days after seeding the Caco-2 cells reached their highest trans-epithelial resistance, which was monitored every four days and on day of the experiment. An immunocytochemistry was also performed with an additional insert (translucent) to confirm stable formation of tight-junctions and cell monolayer. Culture medium was then removed and the cells were washed with PBS. Culture medium supplemented with cyclosporin (10 µM) was added to both compartments and the cells were incubated at 37 °C for 30 min. Afterwards 1 MBq [^18F]2b was added to each compartment. An aliquot was taken from each compartment after 0, 30, 60 and 90 min and analyzed in the gamma-counter. To identify cyclosporine-A induced accumulation the experiment was also performed using culture medium lacking cyclosporine-A. As positive control the experiment was performed with ^99mTc-MIBI (100 kBq/ compartment).

[6] = molecular target: D3 receptor; settings: cited from earlier work
[7] = design: method as in PMID 24339325, PMID 26707848; settings: over 120 min, previously reported; cited from earlier work
[8] = Caco-2, absence of cyclosporin-A, up to 90 min

Q: With `COc1ccccc1N1CCN(CCCCNC(=O)/N=N/c2ccc([18F])cc2)CC1` [[^18F]2b] as the molecule, how does the “free radioligand in rat plasma” value [1] read?
A: Its value is 80%.

Q: And the “binding pattern in rat brain sections” value [2]?
A: The value was “D3 specific binding was visible”.

Q: What about the “uptake in the third and lateral ventricle” value [3] of the same molecule?
A: Its value is “approximately 0.25 %ID/g”.

Q: What about the “uptake in the pituitary gland” value ([3]; 30 min p.i.) of the same molecule?
A: Its value is 0.8 %ID/g.

Q: What about the “blocking of fourth ventricle uptake with BP897” value ([3]; BP897 1 mg/kg) of the same molecule?
A: The value was 50%.

Q: What about the “decrease of initial and mean pituitary gland uptake by blocking with BP897” value ([3]; BP897 1 mg/kg) of the same molecule?
A: Its value is 35%.

Q: What about the “uptake in the pituitary gland” value ([3]; after approximately 5 min) of the same molecule?
A: Its value is 0.94 %ID/g.

Q: What about the “maximum uptake in the cerebral matter” value ([3]; at 65 s post intravenous injection) of the same molecule?
A: The value was 0.14 %ID/g.

Q: What about the “uptake in the pituitary gland” value ([3]; end of the recording) of the same molecule?
A: The value was 0.76 %ID/g.

Q: What about the “uptake in the fourth ventricle” value ([3]; initial uptake, constant over the 60 min of recording) of the same molecule?
A: Its value is 0.4 %ID/g.

Q: What about the “uptake in the cerebral matter after wash-out” value ([3]; over the 60 min of recording) of the same molecule?
A: Its value is 0.07 %ID/g.

Q: What about the “percentage inside the cells” value [4] of the same molecule?
A: The value was 5%.

Q: And the “influence of cyclosporin-A on cellular uptake” value ([4]; with vs without cyclosporin-A)?
A: Its value is “did not increase the uptake”.

Q: What about the “concentration in the apical compartment, % of the initial concentration” value [5, 8] of the same molecule?
A: The value was 90%.

Q: What about the “concentration in the basolateral compartment, % of the initial concentration” value [5, 8] of the same molecule?
A: Its value is 100%.

Q: And the “concentration in the basolateral compartment” value ([5]; Caco-2, presence of cyclosporin-A)?
A: Its value is “stayed nearly constant”.

Q: And the “concentration in the apical compartment, % of the initial concentration” value ([5]; Caco-2, presence of cyclosporin-A (^99mTc-MIBI after 60 and 90 min; [^18F]2b after 30 min))?
A: Its value is 80%.

Q: And the P-gp substrate ([5]; conclusion from inhibition and transport assays)?
A: Its P-gp substrate is “no P-gp substrate”.

Q: What about the pKi [6] of the same molecule?
A: The pKi was 8.46.

Q: And the “decomposition in human serum” value [7]?
A: The value was “no decomposition was observed”.
